Data set [1] deals with T1, hNTS1R (Homo sapiens, UniProt P30989).
T1 construct: at hNTS1R expressing intact human HT-29 colon carcinoma cells; endogenous in cells; host or cells: HT-29 human colon carcinoma cells (intact)
As to the kind of experiment: Radioligand competition binding with [^3H]UR-MK300 at intact HT-29 cells. The following applies: [^3H]UR-MK300 (Kd = […], c = 1 nM), 23 °C. The method, then: Unspecific binding was subtracted from total binding to obtain specific binding. Data analysis was performed by plotting % specifically bound radioligand (100% = specifically bound radioligand in the absence of competitor) over log(concentration of competitor) followed by a four-parameter logistic fit (SigmaPlot 12.5, Systat Software). […] The Ki values from individual experiments were transformed to pKi values, followed by the calculation of mean pKi values ± SEM.

Data set [2] can be described thus: In vitro stability in human plasma/PBS (1:2 v/v) at 37 °C. The following applies: human blood plasma/PBS (1:2 v/v), read-out: % intact peptide in human plasma after the given incubation time; for remaining at 2 h, 100 µM: pH 7.4, 2 h; for remaining at 6 h, 100 µM: pH 7.4, 6 h; for remaining at 24 h, 100 µM: pH 7.4, 24 h; for remaining at 48 h, 100 µM: pH 7.4, 48 h; for remaining at 1 h, 100 µM: pH 7.4, 1 h; for remaining at 10 min, 100 µM: pH 7.4, 10 min. Format: in vitro ADME. On the procedure: (§1) The metabolic stabilities of 11–14, 16 and 18–21 (cf. Table 2) were investigated in human blood plasma/PBS (136.9 mM NaCl, 2.68 mM KCl, 5.62 mM Na2HPO4, 1.09 mM NaH2PO4 and 1.47 mM KH2PO4) pH 7.4 (1:2, v/v) according to a described procedure[13] with the following modifications: 5 mM stock solutions in EtOH/0.04% aq TFA (30:70 v/v) (11–13), MeCN/0.025% aq TFA (30:70 v/v) (14), MeCN/0.04% aq TFA (30:70 v/v) (16, 19 and 21) or EtOH/H2O (40:60 v/v) (18, 20) were used for the addition of the peptides to plasma/PBS (1:2 v/v). As the RP-HPLC purity of 1-Methyl-D-Trp (internal standard, IS) was < 95% (data not shown), the compound was purified by preparative HPLC to give a purity of > 99%. The concentration of the peptides in plasma/PBS (1:2 v/v) was 80 and 4 µM (recovery determination) or 100 µM (stability tests). The obtained recoveries and the recovery ratios (peptide/internal standard) are summarized in Supplementary Table S1. Data analysis was based on UV detection at 220 nm. Additionally, the stability of compound 21 was investigated in mouse plasma/PBS (1:2 v/v) using the same procedure as described above for human plasma. Mouse plasma was obtained by the collection of blood from anaesthetized mice via cardiac puncture using a syringe that was rinsed with sodium heparin (25,000 I.E., Ratiopharm, Ulm, Germany). The heparinized blood was transferred into a 2-mL reaction vessel, followed by centrifugation (1200 g, 4 °C, 10 min). The supernatants were pooled, centrifuged again (1200 g, 4 °C, 10 min), the plasma was aliquoted and stored at − 80 °C. The concentration of 21 in plasma/PBS (1:2 v/v) was 80 and 4 μM (recovery determination) or 100 μM (stability tests). The obtained recoveries and the recovery ratios (21/IS) are summarized in Supplementary Table S2. Data analysis was based on UV detection at 220 nm.

Data set [3] can be described thus: In vitro stability in mouse plasma/PBS (1:2 v/v) at 37 °C. The class given is in vitro ADME. The following applies: read-out: % intact peptide in mouse plasma after the given incubation time. The method, then: as §1
The mark [4] stands for this setting: read-out: pKi ± SEM (converted).

Where two headings read alike, the source gives them in different places.

T1 sequence (P30989 whole entry): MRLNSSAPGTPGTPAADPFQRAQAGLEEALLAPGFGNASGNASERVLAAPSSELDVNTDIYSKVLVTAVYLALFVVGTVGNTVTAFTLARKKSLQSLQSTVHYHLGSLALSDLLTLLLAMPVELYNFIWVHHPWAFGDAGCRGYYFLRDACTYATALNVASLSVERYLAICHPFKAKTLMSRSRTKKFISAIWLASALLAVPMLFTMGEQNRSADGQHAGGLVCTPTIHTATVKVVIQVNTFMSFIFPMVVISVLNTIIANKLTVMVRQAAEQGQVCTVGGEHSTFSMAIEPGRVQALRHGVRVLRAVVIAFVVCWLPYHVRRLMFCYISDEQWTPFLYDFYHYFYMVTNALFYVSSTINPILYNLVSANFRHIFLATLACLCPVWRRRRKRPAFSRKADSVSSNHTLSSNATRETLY

With `CN[C@@H](CCCNC(=N)N)C(=O)N[C@@H](CCCNC(=N)NC(=O)NCCCCc1cn([C@@H]2O[C@H](CF)[C@@H](O)[C@H](O)[C@H]2O)nn1)C(=O)N1CCC[C@H]1C(=O)N[C@@H](Cc1ccc(O)cc1)C(=O)N[C@H](C(=O)N[C@@H](CC(C)C)C(=O)O)C(C)(C)C` [Compound 13, N^α-(N^α-methylarginyl)-{N^ω-[N-(4-{1-[6-deoxy-6-fluoro-β-D-glucopyranosyl]-1H-1,2,3-triazol-4-yl}butyl)aminocarbonyl]}Arg-Pro-Tyr-2-tert-butyl-Gly-Leu-OH tris(hydrotrifluoroacetate)], the Ki entry in data set [1] (mean) is on record as “one-digit nanomolar range”. Besides, in data set [1] (mean, read-out: Ki (converted)), the Ki is 6.2 nM. For the same compound, in data set [2], the remaining at 2 h, 100 µM was above 99%; the remaining at 6 h, 100 µM is above 99%; the remaining at 24 h, 100 µM is above 99%; the remaining at 48 h, 100 µM was 96 ± 1%.
In the case of `C#CCCC(=O)NCCCCNC(=O)NC(=N)NCCC[C@H](NC)C(=O)N[C@@H](CCCNC(=N)N)C(=O)N1CCC[C@H]1C(=O)N[C@@H](Cc1ccc(O)cc1)C(=O)N[C@H](C(=O)N[C@@H](CC(C)C)C(=O)O)C(C)(C)C` [Compound 19, N^α-methyl-{N^ω-[N-(4-pent-4-ynoylaminobutyl)aminocarbonyl]}Arg-Arg-Pro-Tyr-2-tert-butyl-Gly-Leu-OH tris(hydrotrifluoroacetate)], the Ki in data set [1] (mean, read-out: Ki (converted)) was 7.7 nM. In addition, in data set [2], the remaining at 1 h, 100 µM was above 99%; the remaining at 6 h, 100 µM was above 99%; the remaining at 24 h, 100 µM is above 99%; the remaining at 48 h, 100 µM was 99 ± 1%.
Take `CN[C@@H](CCCNC(=N)NC(=O)NCCCCNC(=O)CCc1cn([C@@H]2O[C@H](CF)[C@@H](O)[C@H](O)[C@H]2O)nn1)C(=O)N[C@@H](CCCNC(=N)N)C(=O)N1CCC[C@H]1C(=O)N[C@@H](Cc1ccc(O)cc1)C(=O)N[C@H](C(=O)N[C@@H](CC(C)C)C(=O)O)C(C)(C)C` [Compound 21, N^α-methyl-(N^ω-{N-[4-(3-{1-[6-deoxy-6-fluoro-β-D-glucopyranosyl]-1H-1,2,3-triazol-4-yl}propanoyl)aminobutyl]aminocarbonyl})Arg-Arg-Pro-Tyr-2-tert-butyl-Gly-Leu-OH tris(hydrotrifluoroacetate)]: the Ki result in data set [1] (mean) was “one-digit nanomolar range”; in data set [1] (mean, read-out: Ki (converted)), 4.3 nM; in data set [1] (setting [4]), 4.07 nM. Moreover, the remaining at 1 h, 100 µM in data set [2] is above 99%; in data set [3] (pH 7.4, 1 h), above 99%. In addition, the remaining at 6 h, 100 µM in data set [2] is above 99%; in data set [3] (pH 7.4, 6 h), above 99%. Further, the remaining at 24 h, 100 µM is above 99% in data set [2] and above 99% in data set [3] (pH 7.4, 24 h). The remaining at 48 h, 100 µM was 99 ± 1% in data set [2] and above 99% in data set [3] (pH 7.4, 48 h). The remaining at 10 min, 100 µM in data set [3] (pH 7.4, 10 min) is above 99%. In addition, in data set [3] (pH 7.4, 2 h), the remaining at 2 h, 100 µM was above 99%.
As to `CC(C)C[C@H](NC(=O)[C@@H](NC(=O)[C@H](Cc1ccc(O)cc1)NC(=O)[C@@H]1CCCN1C(=O)[C@H](CCCNC(=N)NC(=O)NCCCCc1cn([C@@H]2O[C@H](CF)[C@@H](O)[C@H](O)[C@H]2O)nn1)NC(=O)[C@@H](N)CCCNC(=N)N)C(C)(C)C)C(=O)O` [Compound 12, H-Arg-{N^ω-[N-(4-{1-[6-deoxy-6-fluoro-β-D-glucopyranosyl]-1H-1,2,3-triazol-4-yl}butyl)aminocarbonyl]}Arg-Pro-Tyr-2-tert-butyl-Gly-Leu-OH tris(hydrotrifluoroacetate)], the Ki in data set [1] (mean, read-out: Ki (converted)) is 5.8 nM. The Ki in data set [1] (setting [4]) is 5.5 nM. In addition, in data set [2], the remaining at 10 min, 100 µM is 86 ± 1%; the remaining at 1 h, 100 µM was below 1%; the remaining at 2 h, 100 µM is below 1%. In data set [2] (pH 7.4, 25 min), the remaining at 25 min, 100 µM was 28 ± 1%.
Turning to `CC(C)C[C@H](NC(=O)[C@@H](NC(=O)[C@H](Cc1ccc(O)cc1)NC(=O)[C@@H]1CCCN1C(=O)[C@H](CCCNC(=N)N)NC(=O)[C@@H](N)CCCNC(=N)NC(=O)NCCCCNC(=O)CCc1cn([C@@H]2O[C@H](CF)[C@@H](O)[C@H](O)[C@H]2O)nn1)C(C)(C)C)C(=O)O` [Compound 20, H-(N^ω-{N-[4-(3-{1-[6-deoxy-6-fluoro-β-D-glucopyranosyl]-1H-1,2,3-triazol-4-yl}propanoyl)aminobutyl]aminocarbonyl})Arg-Arg-Pro-Tyr-2-tert-butyl-Gly-Leu-OH tris(hydrotrifluoroacetate)], the Ki in data set [1] (mean, read-out: Ki (converted)) is 2.5 nM. Moreover, in data set [2], the remaining at 10 min, 100 µM was 78 ± 1%; the remaining at 1 h, 100 µM came out at 6.4 ± 0.1%; the remaining at 24 h, 100 µM was below 1%.
For `CN[C@@H](CCCNC(=N)NC(=O)NCCCCN)C(=O)N[C@@H](CCCNC(=N)N)C(=O)N1CCC[C@H]1C(=O)N[C@@H](Cc1ccc(O)cc1)C(=O)N[C@H](C(=O)N[C@@H](CC(C)C)C(=O)O)C(C)(C)C` [Compound 16, N^α-methyl-N^ω-[(4-aminobutyl)aminocarbonyl]Arg-Arg-Pro-Tyr-2-tert-butyl-Gly-Leu-OH tetrakis(hydrotrifluoroacetate)], the Ki in data set [1] (mean, read-out: Ki (converted)) is 2.8 nM. Moreover, in data set [2], the remaining at 1 h, 100 µM was above 99%; the remaining at 6 h, 100 µM is above 99%; the remaining at 24 h, 100 µM was above 99%; the remaining at 48 h, 100 µM is above 99%.

The values above are taken from paper PMC9440028, “Neurotensin analogs by fluoroglycosylation at N^ω-carbamoylated arginines for PET imaging of NTS1-positive tumors” (Scientific Reports, 2022).
